# Molecular target: T1, FGB1 (Serendipita indica, UniProt G4TDB9)
# T1 construct: gene PIIN_03211; native secreted mature protein purified from P. indica culture filtrate, signal peptide removed; precursor 104 residues; 6,219 Da, non-glycosylated, four disulfide bridges; no tag
# Test: isothermal titration calorimetry (VP-ITC)
# Type: binding
# Conditions: in water, 20 °C; single-site model, N=0.854±0.243; printed error exceeds the value (likely exponent misprint); read-out: K (converted)
# From the text: isothermal titration calorimetry (VP-ITC) on FGB1 | The titration of gentiobiose to FGB1 was fitted to a single-side-binding model
# T1 sequence (G4TDB9 entry or part of it): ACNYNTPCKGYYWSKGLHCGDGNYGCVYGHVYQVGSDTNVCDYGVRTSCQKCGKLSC
smiles,measurement,value
OC[C@H]1O[C@@H](OC[C@H]2OC(O)[C@H](O)[C@@H](O)[C@@H]2O)[C@H](O)[C@@H](O)[C@@H]1O (stereo partly shown) [gentiobiose],Kd,11.4 µM
